The values below are quoted from earlier work in patent US20230066413A1, “ST[…]” (priority 2021, published 2023).

This data set relates to antibiotic-resistant bacteria. As to conditions: stated in background, no experiment described.

On to `O=c1c(O)c(-c2ccc(O)c(O)c2)oc2cc(O)cc(O)c12` [Quercetin], for which the bactericidal concentration is on record as 5,000 parts per million.
